The record followed here is the supplement of paper PMC11061612.

Holding throughout (test): combination Emax (second highest fraction inhibited in the dose matrix, 72 h); higher = more inhibition; extreme values may be limits of the assay
In test [1] the test system is WSU-NHL (B-Cell Non-Hodgkin's Lymphoma). The method in brief: (§1)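 Bliss excess equals the observed combination effect minus the expected value EA + EB − EA·EB, where EA and EB are the effects of each agent alone. Combination Emax is the second-highest inhibition within the matrix. Inhibition was scaled from CellTiter-Glo 2.0 luminescence, with 0 set by vehicle wells and 1 by blank wells, after 72 hours of two-drug dosing of cells plated in 1536-well plates.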

Test [2] deals with SW1710 (Bladder Carcinoma). In short, it runs like this: as §1
For test [3], the system named is SAS (Oral Cavity Carcinoma). In short, it runs like this: as §1
In test [4] the test system is YAPC (Pancreatic Carcinoma). In short, it runs like this: as §1
Test [5] has as its system ESS-1 (Other Solid Carcinomas). In short, it runs like this:
as §1

The subject of test [6] is HH (T-Cell Non-Hodgkin's Lymphoma). In short, it runs like this: as §1
The subject of test [7] is TGBC1TKB (Biliary Tract Carcinoma). In short, it runs like this:
as §1

The next test relates to MPP-89 (Mesothelioma). The method in brief:
as §1

In test [8] the test system is LNZTA3WT4 (Low Grade Glioma). The method in brief: as §1
A further test relates to CAL-72 (Osteosarcoma). In short, it runs like this:
as §1

In the case of `Cc1c2c(nn1C)CSCc1cc(n(C)n1)CSc1cc(c3ccccc3c1)OCCCc1c(C(=O)O)n(C)c3c-2c(Cl)ccc13` [AZD5991] + CC(=O)O[C@H]1C(=O)[C@@]2(C)[C@H]([C@H](OC(=O)c3ccccc3)[C@]3(O)C[C@H](OC(=O)[C@H](O)[C@@H](NC(=O)c4ccccc4)c4ccccc4)C(C)=C1C3(C)C)[C@]1(OC(C)=O)CO[C@@H]1C[C@@H]2O [Paclitaxel] (first compound max 1 µM, 7x7, partner max 3 µM), the “combination Emax” value in test [1] was 0.998; in test [2], 0.836; in test [3], 0.66; in test [4], 0.315; in [5] it was 1; in [6], 0.87. The “combination Emax” value was 0.412 in test [7], 0.557 in the test on MPP-89 (Mesothelioma), 0.899 in [8] and 0.736 in the test on CAL-72 (Osteosarcoma).
For the compound `C[C@@H](Oc1cc(-c2cnn(C3CCNCC3)c2)cnc1N)c1c(Cl)ccc(F)c1Cl` [Crizotinib] + Cn1cnc2c(F)c(Nc3ccc(Br)cc3Cl)c(C(=O)NOCCO)cc21 [Selumetinib] (first compound max 10 µM, 7x7, partner max 10 µM), the “combination Emax” value in [1] came out at 0.98; in [2] it was 0.381; in test [3] it was 0.781; in test [4], 0.526; in [5], 0.773; in test [6], 0.0931. Also, the “combination Emax” value in test [7] stood at 0.147; with MPP-89 (Mesothelioma), 0.37; in test [8], 0.456; in the test with CAL-72 (Osteosarcoma) it was 0.59.
As for `C[C@@H]1COCCN1c1cc(C2([S@](C)(=N)=O)CC2)nc(-c2ccnc3[nH]ccc23)n1` [AZD6738] + C1CC(C1)(C(=O)[O-])C(=O)[O-].N.N.[Pt+2] [Carboplatin] (first compound max 10 µM, 7x7, partner max 10 µM), the “combination Emax” value came out at 0.849 in [1]; 0.429 in test [2]; 0.759 in [3]; 0.369 in [4]; 0.98 in [5]; 0.22 in test [6]. Also, the “combination Emax” value in test [7] turned out to be 0.302; in the test with MPP-89 (Mesothelioma) it was 0.42; in test [8] it was 0.806; in the test on CAL-72 (Osteosarcoma), 0.718.
Regarding `C=CCn1c(=O)c2cnc(Nc3ccc(N4CCN(C)CC4)cc3)nc2n1-c1cccc(C(C)(C)O)n1` [AZD1775] + CCc1c2c(nc3ccc(O)cc13)-c1cc3c(c(=O)n1C2)COC(=O)[C@]3(O)CC [SN-38] (first compound max 1 µM, partner max 0.3 µM), the “combination Emax” value in test [1] is 0.999; in test [2] it was 0.533; in test [3], 1; in test [4] it was 0.722; in test [5], 1; in test [6], 0.567. Further, the “combination Emax” value amounted to 0.426 in [7], 0.769 in the test with MPP-89 (Mesothelioma), 0.802 in [8] and 0.838 with CAL-72 (Osteosarcoma).
In the case of `CS(=O)(=O)CCNCc1ccc(-c2ccc3ncnc(Nc4ccc(OCc5cccc(F)c5)c(Cl)c4)c3c2)o1` [Lapatinib] + NC1(c2ccc(-c3nc4ccn5c(=O)[nH]nc5c4cc3-c3ccccc3)cc2)CCC1 [MK-2206] (first compound max 10 µM, 7x7, partner max 10 µM), the “combination Emax” value in test [1] is 0.969; in test [2], 0.602; in test [3], 0.641; in test [4] it was 0.356; in test [5], 0.96; in test [6], 0.451. In addition, the “combination Emax” value in [7] turned out to be 0.623; with MPP-89 (Mesothelioma), 0.152; in test [8], 0.911; in the test with CAL-72 (Osteosarcoma), 0.89.
Take `C[C@@H](Nc1cc(F)cc(F)c1)c1cc(C(=O)N(C)C)cc2c(=O)cc(N3CCOCC3)oc12` [AZD8186] + CC(=O)c1c(C)c2cnc(Nc3ccc(N4CCNCC4)cn3)nc2n(C2CCCC2)c1=O [Palbociclib] (first compound max 10 µM, 7x7, partner max 10 µM): the “combination Emax” value is 0.967 in [1]; 0.585 in test [2]; 0.609 in test [3]; 0.349 in [4]; 0.552 in test [5]; 0.413 in [6]. For the same compound, the “combination Emax” value in [7] turned out to be 0.534; with MPP-89 (Mesothelioma), 0.317; in test [8] it was 0.478; with CAL-72 (Osteosarcoma) it was 0.398.
With `O=C(c1cc(Cc2n[nH]c(=O)c3ccccc23)ccc1F)N1CCN(C(=O)C2CC2)CC1` [Olaparib] + Cc1c2c(nn1C)CSCc1cc(n(C)n1)CSc1cc(c3ccccc3c1)OCCCc1c(C(=O)O)n(C)c3c-2c(Cl)ccc13 [AZD5991] (first compound max 10 µM, 7x7, partner max 1 µM), the “combination Emax” value came out at 0.797 in test [1]; 0.119 in test [2]; 0.122 in test [3]; 0.104 in [4]; 0.403 in test [5]; 0.809 in test [6]. Moreover, the “combination Emax” value stood at 0.157 in test [7], 0.0575 in the test on MPP-89 (Mesothelioma), 0.123 in test [8] and 0.191 with CAL-72 (Osteosarcoma).
On to `O=C(c1cc(Cc2n[nH]c(=O)c3ccccc23)ccc1F)N1CCN(C(=O)C2CC2)CC1` [Olaparib] + CC1(C)CCC(CN2CCN(c3ccc(C(=O)NS(=O)(=O)c4ccc(NCC5CCOCC5)c([N+](=O)[O-])c4)c(Oc4cnc5[nH]ccc5c4)c3)CC2)=C(c2ccc(Cl)cc2)C1 [Venetoclax] (first compound max 10 µM, 7x7, partner max 1 µM), for which the “combination Emax” value in test [1] was 0.575; in test [2] it was 0.114; in test [3], 0.176; in test [4] it was 0.081; in test [5] it was 0.467; in test [6], 0.165. In addition, the “combination Emax” value came out at 0.108 in test [7], 0.0498 in the test on MPP-89 (Mesothelioma), 0.0965 in test [8] and 0.191 in the test on CAL-72 (Osteosarcoma).
`C[C@@H]1COCCN1c1cc(C2([S@](C)(=N)=O)CC2)nc(-c2ccnc3[nH]ccc23)n1` [AZD6738] + Nc1ccn([C@@H]2O[C@H](CO)[C@@H](O)C2(F)F)c(=O)n1 [Gemcitabine] (first compound max 10 µM, 7x7, partner max 0.3 µM): the “combination Emax” value in test [1] is 0.993; in test [2], 0.655; in test [3] it was 0.991; in test [4], 0.725; in [5] it was 1; in test [6] it was 0.716. The “combination Emax” value is 0.583 in [7], 0.63 in the test with MPP-89 (Mesothelioma), 0.954 in test [8] and 0.897 with CAL-72 (Osteosarcoma).
On to `O=C(c1cc(Cc2n[nH]c(=O)c3ccccc23)ccc1F)N1CCN(C(=O)C2CC2)CC1` [Olaparib] + COc1nnc2ccc(N3CCC(c4ccc(OCCN5CCN(C)C(=O)[C@H]5C)cc4)CC3)nn12 [AZD5153] (first compound max 10 µM, 7x7, partner max 1 µM), for which the “combination Emax” value in test [1] amounted to 0.929; in test [2], 0.379; in test [3] it was 0.742; in test [4] it was 0.267; in test [5] it was 0.695; in test [6], 0.382. The “combination Emax” value in [7] is 0.24; in the test with MPP-89 (Mesothelioma), 0.393; in [8] it was 0.357; in the test on CAL-72 (Osteosarcoma) it was 0.475.
For the compound `O=C(c1cc(Cc2n[nH]c(=O)c3ccccc23)ccc1F)N1CCN(C(=O)C2CC2)CC1` [Olaparib] + CN(CC[C@H](CSC1=CC=CC=C1)NC2=C(C=C(C=C2)S(=O)(=O)NC(=O)C3=CC=C(C=C3)N4CCC(CC4)[C@H](C5=CC=CC=C5C6=CC=C(C=C6)Cl)O)S(=O)(=O)C(F)(F)F)CCO [AZD4320] (first compound max 10 µM, 7x7, partner max 1 µM), the “combination Emax” value was found to be 0.674 in test [1]; 0.265 in [2]; 0.205 in [3]; 0.11 in test [4]; 0.787 in test [5]; 0.21 in [6]. Moreover, the “combination Emax” value in test [7] came to 0.366; in the test on MPP-89 (Mesothelioma), 0.138; in test [8], 0.168; in the test on CAL-72 (Osteosarcoma), 0.183.
With `CC1(C)CCC(CN2CCN(c3ccc(C(=O)NS(=O)(=O)c4ccc(NCC5CCOCC5)c([N+](=O)[O-])c4)c(Oc4cnc5[nH]ccc5c4)c3)CC2)=C(c2ccc(Cl)cc2)C1` [Venetoclax] + CS(=O)(=O)CCNCc1ccc(-c2ccc3ncnc(Nc4ccc(OCc5cccc(F)c5)c(Cl)c4)c3c2)o1 [Lapatinib] (first compound max 1 µM, 7x7, partner max 10 µM), the “combination Emax” value in test [1] was 0.798; in test [2] it was 0.18; in test [3], 0.392; in [4], 0.129; in test [5], 0.669; in [6], 0.129. In addition, the “combination Emax” value in test [7] turned out to be 0.134; with MPP-89 (Mesothelioma), 0.136; in test [8], 0.208; in the test with CAL-72 (Osteosarcoma), 0.646.
For `C[C@@H](Nc1cc(F)cc(F)c1)c1cc(C(=O)N(C)C)cc2c(=O)cc(N3CCOCC3)oc12` [AZD8186] + C1CN(CCC1(C(=O)N[C@@H](CCO)C2=CC=C(C=C2)Cl)N)C3=NC=NC4=C3C=CN4 [AZD5363] (first compound max 10 µM, 7x7, partner max 10 µM), the “combination Emax” value came to 0.9 in test [1]; 0.495 in [2]; 0.364 in [3]; 0.246 in test [4]; 0.549 in test [5]; 0.299 in test [6]. Also, the “combination Emax” value was found to be 0.559 in [7], 0.382 with MPP-89 (Mesothelioma), 0.357 in [8] and 0.29 with CAL-72 (Osteosarcoma).
In the case of `C[C@@H](Oc1cc(-c2cnn(C3CCNCC3)c2)cnc1N)c1c(Cl)ccc(F)c1Cl` [Crizotinib] + CC1=C(C(=CC=C1)Cl)NC(=O)C2=CN=C(S2)NC3=CC(=NC(=N3)C)N4CCN(CC4)CCO [Dasatinib] (first compound max 10 µM, 7x7, partner max 2 µM), the “combination Emax” value in test [1] is 0.994; in test [2], 0.944; in test [3], 0.779; in test [4] it was 0.694; in test [5], 0.987; in test [6], 0.203. The “combination Emax” value in [7] came to 0.707; in the test on MPP-89 (Mesothelioma) it was 0.914; in test [8] it was 0.666; in the test on CAL-72 (Osteosarcoma), 0.79.
`CS(=O)(=O)CCNCc1ccc(-c2ccc3ncnc(Nc4ccc(OCc5cccc(F)c5)c(Cl)c4)c3c2)o1` [Lapatinib] + Cn1cnc2c(F)c(Nc3ccc(Br)cc3Cl)c(C(=O)NOCCO)cc21 [Selumetinib] (first compound max 10 µM, 7x7, partner max 10 µM): the “combination Emax” value was 0.788 in test [1]; 0.317 in [2]; 0.677 in test [3]; 0.386 in [4]; 0.705 in test [5]; 0.211 in [6]. Further, the “combination Emax” value was 0.288 in test [7], 0.42 in the test on MPP-89 (Mesothelioma), 0.369 in test [8] and 0.446 in the test on CAL-72 (Osteosarcoma).
